Patent US20090197279A1, “MICROTUBULE SYNTHESIS AS A BIOMARKER” (KINEMED, INC., priority 2005, published 2009)

How the values were obtained:
microtubule polymer = assay: Total abundance of microtubule polymer by Western blotting after CFC; format: in vivo, mouse; details: conditioned mice, nocodazole 0.2 mg/kg; data not shown
Text: (§1) Tubulin was purified using minor modifications of protocols described previously (Fanara, P., Oback, B., Ashman, K., Podtelejnikov, A., Brandt, R. Identification of MINUS, a small polypeptide that functions as a microtubule nucleation suppressor. EMBO J. 18, 565-577 (1999); Fanara, P. et al. In vivo measurement of microtubule dynamics using stable isotope labeling with heavy water. Effect of taxanes. J. Biol. Chem. 279, 49940-49947 (2004). Briefly, cultured neurons were gently scraped off culture plates, washed in phosphate-buffered saline (PBS), and homogenized in microtubule-stabilizing buffer. […] The relative abundance of tubulin in each preparation (Tubulin dimers and TAU5-bound, MAP2-bound, and unbound microtubule fractions) was quantified by Western blot, and tubulin from these fractions was further purified by ion exchange and size exclusion chromatography, as previously described (Fanara, P. et al. In vivo measurement of microtubule dynamics using stable isotope labeling with heavy water. Effect of taxanes. J. Biol. Chem. 279, 49940-49947 (2004)).
To test the role of microtubule/tubulin exchange in hippocampus-dependent memory, we treated animals with nocodazole (0.2 mg/kg), a microtubule-depolymerizing agent, four hours prior to CFC training (FIG. 10A). […] The total abundance of microtubule polymer, as detected by Western blotting, was decreased as well (data not shown).

[1] = tested on: hippocampal MT subpopulations; assay: Tubulin abundance of MT subpopulations in hippocampus by Western blot for α-tubulin; format: in vivo, mouse; details: 0.48 nmol glutamate ICVC; 24 hours; vs mock
Procedure: FIG. 7 depicts the effects of ICV glutamate on the relative amounts of MT subpopulations and on total protein synthesis in murine hippocampus. (A, B) Tubulin abundances are measured by Western blot analysis for α-tubulin at 8 hour (A) and 24 hours (B). Subpopulations were total extract (total), free tubulin dimers, tau-associated MTs, tau-nonassociated (MAP2/STOP) MTs and cold stable (CS) MTs. Mock and glutamate infused ICVC mice are shown (cf. FIGS. 6A and B). […] (C) Fractional synthesis of total hippocampal proteins. Glutamate increased protein synthesis versus mock-treated animals (*p<0.01); this effect was blocked by coadministration with 0.66 pmol of Rp-cAMP (**p<0.02).
as §1, with “buffer. For purification ex vivo, mice were anesthetized with isoflurane and euthanized by cervical dislocation. Brains were rapidly removed and washed in microtubule-stabilizing buffer (MSB); hippocampi were dissected and gently homogenized in MSB.” for “buffer.”

Structure (SMILES): COC(=O)Nc1nc2ccc(C(=O)c3cccs3)cc2[nH]1 [nocodazole]
- total abundance of microtubule polymer (Western blotting) (microtubule polymer): decreased

Structure (SMILES): N[C@@H](CCC(=O)[O-])C(=O)[O-].[K+].[K+] [glutamate, potassium L-glutamate]
- abundance of CS-MTs, Western blot [1]: increased
- abundance of MAP2/STOP-MTs (MAP2-associated microtubules), Western blot [1]: increased
- abundance of tau-MTs, Western blot [1]: remained unchanged
